# Experiment: In vitro binding affinity for PBR (peripheral benzodiazepine receptor) in monkey brain
structure (smiles),measurement,value
COc1ccc(OC)c(CN(C(C)=O)c2cc(F)ccc2Oc2ccccc2)c1,Ki,188 pM

# From BindingDB's records for doi:10.1016/s0960-894x(02)00886-7 (National Institute of Radiological Sciences, 2002)
